From patent EP0391644B1, “Aryl-substituted rhodanine derivatives” (ELI LILLY AND COMPANY, priority 1989, dated 1990)
“And” between values parts separate entries of the source, which are not always exact repeats. Equal values may be shown once.

Key:
[1] = system: Collagen-Induced Arthritis; test: Collagen-Induced Arthritis Assay; assay type: in vivo, inbred Lewis male rats; conditions: 5 days per week, hindpaw volume
Description: Type II collagen was isolated from bovine articular cartilage by the method of Strawich and Nimni [Biochemistry, 10, 3905 (1971)]. The collagen was dissolved in 0.1 M acetic acid and stored at -20°C. Type II collagen solution was diluted to 2 mg/ml concentration and emulsified thoroughly with an equal volume of incomplete Freund's adjuvant (ICFA). The emulsion containing approximately 0.5 mg of collagen was injected intradermally on day 0 to groups of 6 inbred Lewis male rats (Charles River Breeders; 170-200 g) at various sites in the dorsal area. The hindpaw volumes of each rat were measured and recorded three times a week throughout the test period to assess the inflammatory reaction. The test group animals received compounds under test as suspensions in carboxymethylcellulose vehicle, by oral gavage, 5 days per week (Monday-Friday), beginning on day 1. Control animals received vehicle without a test compound. At the end of the test (day 28 or 30), the blood of these animals was drawn by cardiac puncture and the serum anti-type II collagen antibody levels were estimated by passive hemaglutination technique, using glutaraldehyde treated sheep red cells, to which type II collagen is conjugated [Avrameas et al., Immunochemistry, 6, 67 (1969); Andriopoulos et al., Arth. Rheum., 19, 613 (1976)]. The cellular response or delayed-type hypersensitivity response to type II collagen was measured by the radiometric ear index assay [Kostiala, Immunology, 33, 561 (1977)]. In certain experiments, the bone damage occurring because of immunization with type II collagen and the effects of drugs were determined from the radiographs of the hind-paws of two or three representative animals from each group. Injections of ICFA without collagen II were employed in some rats as a negative control; these rats received only carboxymethycellulose vehicle during the test.
The % inhibition was calculated according to the following formula: % inhibition = [1-(Vt - Vv)/(Vc - Vv)] X 100 [formula] where Vt is the hindpaw volume of a compound-treated animal (test group), Vc is the hindpaw volume of a non-compound-treated animal (carboxymethylcellulose vehicle only-the control group), and Vv is the hindpaw volume of a vehicle (carboxymethylcellulose) treated animal which received ICFA with no collagen II (negative control group).

inflammation = test: Carrageenin Assay; assay type: in vivo; conditions: Rattus norvegicus, po, carrageenin-injected hind paws of rats, read-out: Percent Inhibition; for inhibition in vivo at 50 mg/kg: 50 mg/kg orally by gavage
Description: The compounds were evaluated for antiinflammatory activity in the test method described by C.A. Winter, Proc. Soc. Exp. Biol. Med., 111, 544 (1962). In this test, inflammation is created by injecting carrageenin into the hind paws of rats. Test compounds are administered prior to injection to determine percent inhibition of the subsequent inflammation in comparison with control animals.

[2] = system: adjuvant-induced arthritis; test: Developing Adjuvant-Induced Arthritis Test in Rats; assay type: in vivo, male Lewis-Wistar rats; conditions: Rattus norvegicus, po, 720 h; 50 mg/kg P.O. x 29; AUC of uninjected paw volumes, Days 16 through 30; read-out: % Inhibition of Uninjected Paw Volume Inflammation
Dystrophic mice (dy/dy) = test: Muscular Dystrophy Animal Model; assay type: in vivo
Description: Dystrophic mice (dy/dy) were obtained from Jackson Laboratories after weaning (approximately 21 days) and treatment with the compounds shown in Table V was begun at the first sign of dystrophy. The compounds that were tested were administered in the diet and lifespan was measured during the course of treatment. The food and water sources were located in different parts of the cage requiring the animals to walk from the food source to the water source to survive.

[3] = 0.03 percent by weight of compound in diet

Q: Which “% inhibition” value ([1]; 50 mg/kg by oral gavage) does the source give for `CC(C)(C)c1cc(C=C2SC(=S)NC2=O)cc(C(C)(C)C)c1O` [Example 1, 5-{[3,5-bis(1,1-dimethylethyl)-4-hydroxyphenyl]-methylene}-2-thioxo-4-thiazolidinone] here?
A: 100% and 53%

Q: And the inhibition in vivo at 30 mg/kg (inflammation; 30 mg/kg orally by gavage)?
A: 67%

Q: And the inhibition in vivo at 50 mg/kg [2]?
A: 41%

Q: For `CC(C)(C)c1cc(C=C2SCNC2=O)cc(C(C)(C)C)c1O` [Example 2, 5-{[3,5-bis(1,1-dimethylethyl)-4-hydroxyphenyl]methylene}-4-thiazolidinone], which “% inhibition” value ([1]; 30 mg/kg by oral gavage) is on record?
A: 91% and 50%

Q: What about the “% inhibition” value ([1]; 50 mg/kg by oral gavage) of the same molecule?
A: 100%

Q: What about the “Average Life Span” value (Dystrophic mice (dy/dy); [3]) of the same molecule?
A: 57 days

Q: And the “Average Life Span” value (Dystrophic mice (dy/dy); 0.08 percent by weight of compound in diet)?
A: 116 days and 73 days

Q: And the “Average Life Span” value (Dystrophic mice (dy/dy); 0.1 percent by weight of compound in diet)?
A: 108 days

Q: And the “Average Life Span” value (Dystrophic mice (dy/dy); 0.3 percent by weight of compound in diet)?
A: 74 days

Q: What about the inhibition in vivo at 50 mg/kg (inflammation) of the same molecule?
A: 46%

Q: What about the inhibition in vivo at 50 mg/kg [2] of the same molecule?
A: 81%

Q: With `COC(=O)N1CSC(=Cc2cc(C(C)(C)C)c(O)c(C(C)(C)C)c2)C1=O` [Example 4, 5-{[3,5-bis(1,1-dimethylethyl)-4-hydroxyphenyl]methylene}-4-oxo-3-thiazolidinecarboxylic acid, methyl ester] as the molecule, how does the “% inhibition” value ([1]; 50 mg/kg by oral gavage) read?
A: 5%

Q: And the inhibition in vivo at 50 mg/kg (inflammation)?
A: 65%

Q: And the inhibition in vivo at 50 mg/kg [2]?
A: 23%

Q: Which “Average Life Span” value (Dystrophic mice (dy/dy); [3]) does the source give for `CC(C)(C)c1cc(C=C2SCOC2=O)cc(C(C)(C)C)c1O` [Example 17, 4-{[3,5-bis(1,1-dimethylethyl)-4-hydroxyphenyl]methylene}-1,3-oxothiolan-5-one] here?
A: 112 days

Q: What about the inhibition in vivo at 50 mg/kg (inflammation) of the same molecule?
A: 18%

Q: And the inhibition in vivo at 50 mg/kg [2]?
A: 61%

Q: For `CC(C)(C)c1cc(CC2SCNC2=O)cc(C(C)(C)C)c1O` (stereo not shown) [Example 3, 5-{[3,5-bis(1,1-dimethylethyl)-4-hydroxyphenyl]methyl}-4-thiazolidinone], which “% inhibition” value ([1]; 50 mg/kg by oral gavage) is on record?
A: 79%

Q: What about the inhibition in vivo at 50 mg/kg (inflammation) of the same molecule?
A: 12%

Q: And the inhibition in vivo at 50 mg/kg [2]?
A: 10%

Q: What does the source list for `CCCCN1CSC(=Cc2cc(C(C)(C)C)c(O)c(C(C)(C)C)c2)C1=O` [Example 16, 5-{[3,5-bis(1,1-dimethylethyl)-4-hydroxyphenyl]methylene}-3-butyl-4-thiazolidinone]?
A: inhibition in vivo at 50 mg/kg (inflammation): 40%; inhibition in vivo at 50 mg/kg [2]: 18%
